Experimental data taken from patent US20250228838A1, “METHODS OF USE OF CYCLIC AMIDE DERIVATIVES TO TREAT SIGMA RECEPTOR MEDIATED DISORDERS” (Minerva Neurosciences, Inc., priority 2010, published 2025).

Assays:
[1] = molecular target: sigma 2 receptor (Homo sapiens, UniProt Q5BJF2); settings: cited from earlier work
[2] = molecular target: 5-HT2A (Homo sapiens, UniProt P28223); settings: cited from earlier work
[3] = system: patients with DSM-IV schizophrenia; test: Phase 2 double-blind, randomized, placebo-controlled clinical study of CYR-101; format: in vivo, human
Method: A study was conducted using the compound of formula II, to examine the efficacy on schizophrenia and treatment of symptoms of schizophrenia. The study was a multi-center, inpatient and ambulatory, phase 2, double-blind, randomized, placebo-controlled proof of concept study of the compound of formula II in patients with DSM-IV schizophrenia. The study used 21 centers across three different countries. The study was designed to test the therapeutic efficacy of the compound of formula II on all dimensions of schizophrenic disease (E.g., positive, negative, and general symptoms, cognition, sleep, mood and anxiety). The study also examined the safety of the administered doses of the compound of formula II (also referred to herein as CYR-101), including heart repolarization (i.e., QT interval), weight change, adverse events, prolactin, and extrapyramidal symptoms). The study was conducted for a time period of three months. […] In one aspect of the study, the dosage of compound was titrated up to 32 mg b.i.d. The resulting data was analyzed one of three ways: 1.) Safety set; 2.) Full analysis set, with each patient having at least one PANSS evaluation after treatment initiation included in the efficacy analysis. The LOCF method is used; and 3.) Per protocol set, where for certain analyses, all patients having completed three months of treatment are included. ANCOVA followed by a contrast analysis at each time point were applied and in some cases, a non-parametric Wilcoxon test was used.

[4] = system: dopamine; settings: cited from earlier work

sigma 2 receptor, sequence (Q5BJF2 whole entry, species assumed): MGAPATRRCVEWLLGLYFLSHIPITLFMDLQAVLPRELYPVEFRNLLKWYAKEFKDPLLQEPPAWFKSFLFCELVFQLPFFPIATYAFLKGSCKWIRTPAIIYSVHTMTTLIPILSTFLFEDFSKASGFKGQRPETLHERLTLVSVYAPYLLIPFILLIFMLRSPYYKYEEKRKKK
5-HT2A, sequence (P28223 whole entry, species assumed): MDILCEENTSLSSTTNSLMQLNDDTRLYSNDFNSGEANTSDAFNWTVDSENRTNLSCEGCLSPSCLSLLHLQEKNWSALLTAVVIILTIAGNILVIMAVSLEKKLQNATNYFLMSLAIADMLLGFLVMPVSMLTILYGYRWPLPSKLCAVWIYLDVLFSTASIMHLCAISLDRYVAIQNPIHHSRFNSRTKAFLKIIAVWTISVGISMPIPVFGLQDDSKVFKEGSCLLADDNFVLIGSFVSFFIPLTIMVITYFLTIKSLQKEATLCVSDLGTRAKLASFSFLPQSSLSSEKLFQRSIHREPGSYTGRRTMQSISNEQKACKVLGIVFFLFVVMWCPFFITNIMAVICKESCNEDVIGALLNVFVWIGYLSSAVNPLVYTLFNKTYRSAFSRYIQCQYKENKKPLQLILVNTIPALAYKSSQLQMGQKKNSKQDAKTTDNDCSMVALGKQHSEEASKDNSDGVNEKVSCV

## O=C(CN1CCC(CN2Cc3ccccc3C2=O)CC1)c1ccc(F)cc1 [CYR-101, 2-[[1-[2-(4-Fluorophenyl)-2-oxoethyl]piperidin-4-yl]methyl]isoindolin-1-one]
[1]; Table 3 of U.S. Pat. No. 7,166,617, read-out: affinity for the sigma 2 receptor
  Ki: 13 nM
[1]
  mode of action at sigma 2: antagonist
  sigma 2 selectivity of receptor binding: sigma 2-selective receptor binding
[2]
  mode of action at 5-HT2A: antagonist
[3]; doses up to 32 mg b.i.d., clinically acceptable limits E.g. 10-15 milliseconds or less
  QT interval: did not cross clinically acceptable limits
[3]; full analysis set (FAS)
  cognitive performances assessed by BACS, versus placebo: no differences between the placebo group and the CYR-101 group, except for the Token motor task
[3]; per protocol set (PPC) at D84, Token motor task, list learning task, verbal fluency, processing speed, not statistically significant
  cognitive performances assessed by BACS, versus placebo: slight difference in favour of CYR-101 group
[3]; schizophrenic patients
  duration of continued improvement in both positive and negative symptoms: continued for more than twelve weeks
  effect on cognition: positive effect on cognition
  mood, anxiety and sleep: some improvements of mood, anxiety and sleep
[3]; schizophrenic patients, PANSS
  improvement in positive symptoms: did not improve until after the first four weeks of treatment
[3]; schizophrenic patients, PANSS, course of treatment
  improvement in negative symptoms: observed immediately, and continued through the course of treatment
[3]; schizophrenic patients, three months, titrated up to 32 mg b.i.d.
  emergence or worsening of extrapyramidal symptoms, CYR-101 versus placebo: no significant difference
[3]; three SAE in total, two in placebo group, unlikely related to CYR-101
  number of SAE in the active treatment group: one
[4]
  dopamine binding: devoid of dopamine binding properties
